Experimental data: the supplement of paper PMC10307832

How the values were obtained:
Test in all cases: relative viability (nuclei count vs DMSO), 5 days (fraction); higher = more cells survive
[1] = compound: Cn1cc(-c2cnc3ccc4ccc(CS(=O)(=O)NCc5ccccn5)cc4c(=O)c3c2)cn1 [MK-8033] + N=C(N)NC(=N)NCCc1ccccc1 [Phenformin] (partner 250 µM)
Summary of the method: (§1)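 Lung cancer cell lines were seeded in 1536-well plates and dosed by pin tool the next day, with either a single drug or a fixed anchor-drug dose combined with five library-drug doses (not always all listed) spaced in √10 steps. Five days later, one step fixed the cells and stained their nuclei (final 0.05% Triton X-100, 1% formaldehyde, 1 ug/ml Hoechst), and nuclei were counted on 4× images. Relative viability is the nuclei count in treated wells divided by the count in vehicle wells, and each value is the median of duplicate plates.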

[2] = compound: CCc1c2c(nc3ccc(OC(=O)N4CCC(N5CCCCC5)CC4)cc13)-c1cc3c(c(=O)n1C2)COC(=O)[C@]3(O)CC [Irinotecan] + Cc1nc(Nc2ncc(C(=O)Nc3c(C)cccc3Cl)s2)cc(N2CCN(CCO)CC2)n1 [Dasatinib] (partner 0.075 µM)
Summary of the method: as §1

[3] = compound: Cn1cc(-c2cnc3ccc4ccc(CS(=O)(=O)NCc5ccccn5)cc4c(=O)c3c2)cn1 [MK-8033] + CS(=O)(=O)CCNCc1ccc(-c2ccc3ncnc(Nc4ccc(OCc5cccc(F)c5)c(Cl)c4)c3c2)o1 [Lapatinib] (partner 2 µM)
Summary of the method: as §1

[4] = compound: CC[C@@H](C)CNCC(=O)N1CCC2=C([C@@H]1COC3=CC=CC(=C3)C)C=CS2 [RU-SKI 43] + Cc1nc(Nc2ncc(C(=O)Nc3c(C)cccc3Cl)s2)cc(N2CCN(CCO)CC2)n1 [Dasatinib] (partner 0.075 µM)
Summary of the method: as §1

Cell Line	relative viability ([1]; first compound 0.02 µM)	relative viability ([1]; first compound 0.06325 µM)	relative viability ([1]; first compound 0.2 µM)	relative viability ([1]; first compound 0.6325 µM)	relative viability ([1]; first compound 2 µM)	relative viability ([2]; first compound 0.6325 µM)	relative viability ([2]; first compound 2 µM)	relative viability ([2]; first compound 6.325 µM)	relative viability ([2]; first compound 20 µM)	relative viability ([3]; first compound 0.02 µM)	relative viability ([3]; first compound 0.06325 µM)	relative viability ([3]; first compound 0.2 µM)	relative viability ([3]; first compound 0.6325 µM)	relative viability ([3]; first compound 2 µM)	relative viability ([4]; first compound 0.1 µM)	relative viability ([4]; first compound 0.3162 µM)	relative viability ([4]; first compound 1 µM)	relative viability ([4]; first compound 3.162 µM)	relative viability ([4]; first compound 10 µM)
NCI-H1666	0.588	0.598	0.548	0.612	0.527	0.864	0.657	0.486	0.348	0.708	0.505	0.519	0.656	0.587	0.772	0.922	0.799	0.763	0.699
HARA	0.477	0.406	0.396	0.374	0.422	0.109	0.188	0.114	0.121	0.594	0.632	0.763	0.69	0.828	0.288	0.317	0.303	0.34	0.156
NCI-H661	0.26	0.254	0.27	0.267	0.292	0.691	0.64	0.353	0.141	0.384	0.417	0.482	0.453	0.438	0.923	0.964	0.931	0.83	0.843
NCI-H2087	0.5	0.434	0.417	0.435	0.386	0.392	0.535	0.19	0.196	0.991	1.11	1.11	0.859	0.98	0.998	1.48	0.866	0.938	0.943
LC-2-ad	0.605	0.515		0.592	0.589	0.286	0.437	0.184	0.204	1.09	0.915	0.877	1.11	0.806	0.587	0.634	0.77	0.605	0.552
NCI-H2405	0.406	0.348	0.403	0.377	0.367		0.218	0.198	0.18	0.967	0.944	1.09	1.03	1.1	0.213	0.198	0.218	0.209	0.194
HCC-44	0.209	0.181	0.22	0.252	0.208					1.02	1.02	0.943	0.999	1					
NCI-H3122	0.346	0.347	0.347	0.368	0.354	0.142	0.619	0.149	0.117	1.03	0.98	1.01	1.01	0.993	0.959	0.913	0.806	0.778	0.838
LU99A	0.859	0.747	0.773	0.845	0.751	0.303	0.322	0.248	0.177	1.03	0.892	0.97	0.893	0.764	0.486	0.614	0.602	0.587	0.599
ABC-1	0.202	0.219	0.227	0.281	0.211		0.675	0.444	0.203	1.19	1.35	0.955	1.1	1.43	0.664	0.443	0.638	0.553	0.501
H3255	0.341	0.364	0.335	0.326	0.37	0.443	0.292	0.358	0.387	0.24	0.233	0.232	0.261	0.226	0.364	0.387	0.578	0.393	0.309
HCC-827	0.407		0.397	0.424	0.393	0.459	0.219	0.247	0.227	0.195		0.188	0.184	0.218	0.249	0.267	0.319	0.298	0.331
NCI-H1734	0.435	0.338	0.366	0.361	0.37		0.385	0.218	0.155	1.11	0.88	1.02	1.09	1.01	0.384	0.451	0.478	0.444	0.343
EBC-1										0.182	0.218	0.217	0.21	0.203					
NCI-H838	0.622	0.572	0.524	0.555	0.543	0.213	0.259	0.249	0.247	0.902	0.844	0.925	0.927	0.911	0.296	0.213	0.303	0.247	0.327
NCI-H1437	0.293	0.291	0.291	0.324	0.267	0.229	0.534	0.254	0.111	0.736	0.773	0.793	0.834	0.749	0.541	0.452	0.472	0.452	0.377
NCI-H1915	0.356	0.315	0.373	0.391	0.376	0.215	0.221	0.132	0.128	0.935	0.85	0.992	1	0.948	0.337	0.331	0.357	0.306	0.318
SK-MES-1	0.67	0.622	0.634	0.719	0.671	0.293	0.284	0.22	0.186	0.433	0.437	0.478	0.459	0.441	0.336	0.358	0.357	0.342	0.388
NCI-H2342	0.55	0.529	0.585	0.594	0.591	0.304	0.278	0.299	0.377						0.34	0.313	0.321	0.319	0.317
NCI-H1299										0.989	0.947	0.964	0.965	0.982					

Cell Line	relative viability ([1]; first compound 0.02 µM)	relative viability ([1]; first compound 0.06325 µM)	relative viability ([1]; first compound 0.2 µM)	relative viability ([1]; first compound 0.6325 µM)	relative viability ([1]; first compound 2 µM)	relative viability ([2]; first compound 0.6325 µM)	relative viability ([2]; first compound 2 µM)	relative viability ([2]; first compound 6.325 µM)	relative viability ([2]; first compound 20 µM)	relative viability ([3]; first compound 0.02 µM)	relative viability ([3]; first compound 0.06325 µM)	relative viability ([3]; first compound 0.2 µM)	relative viability ([3]; first compound 0.6325 µM)	relative viability ([3]; first compound 2 µM)	relative viability ([4]; first compound 0.1 µM)	relative viability ([4]; first compound 0.3162 µM)	relative viability ([4]; first compound 1 µM)	relative viability ([4]; first compound 3.162 µM)	relative viability ([4]; first compound 10 µM)
NCI-H1650	0.412	0.285	0.38	0.441	0.399		0.401	0.304	0.177	0.823	0.69	0.737	0.709	0.707	0.356	0.362	0.373	0.36	0.279
NCI-H647	0.508	0.448	0.509	0.546	0.549	0.123	0.187	0.131	0.0807	0.892	1.02	0.798	1.09	1.05	0.155	0.226	0.223	0.192	0.135
NCI-H1944	0.186	0.159	0.19	0.198	0.181	0.151	0.189	0.121	0.107	0.931		0.808	0.825	0.791	0.209	0.223	0.213	0.211	0.2
NCI-H23	0.795	0.81	0.715	0.857	0.814	0.563	0.679	0.274	0.231	1.27	0.818	0.919	1.35	1.09	0.691	0.809	0.797	0.868	0.515
NCI-H1792	0.346	0.267		0.282	0.225	0.803	0.747	0.506	0.192	1.06	0.87	0.863	0.917	0.976	0.772	1.03	0.739	0.892	0.845
HCC-78	0.806		0.668	0.728	0.799	0.394	0.384	0.214	0.24	0.765	0.811	0.65		0.94	0.457	0.349	0.607	0.319	0.369
NCI-H358	0.369	0.296	0.296	0.307	0.318	0.142	0.151	0.136	0.105	0.427	0.317	0.44	0.42	0.456	0.166	0.127	0.131	0.151	0.167
NCI-H520	0.766	0.424	0.503	0.639	0.542	0.192	0.214	0.202	0.161	0.959	0.853	0.784	0.867	0.79	0.188	0.233	0.297	0.272	0.191
BEN	0.288	0.239	0.269	0.233	0.255	0.238	0.331	0.199	0.252	0.695	0.679	0.649	0.738	0.75	0.333	0.253	0.474	0.272	0.316
A-427	0.308	0.371	0.289	0.325	0.374		0.535	0.211	0.16	1.05	1.1	0.947	1.1	1.08	0.823	0.656	0.693	0.718	0.643
NCI-H1703										1.04	1.04	0.99	0.912	1.05					
LCLC-103H	0.378	0.334	0.314	0.355	0.396	0.413	0.439	0.324	0.275						0.502	0.481	0.64	0.453	0.49
NCI-H1623	0.578	0.538	0.618	0.507	0.619	0.391	0.442	0.214	0.22						0.513	0.514	0.668	0.541	0.468
Calu-6										1.06	1.03	0.971	1.15	1.19					
NCI-H441	0.997	0.739	0.645	0.955	0.732	0.461	0.577	0.286	0.22						0.615	0.656	0.553	0.582	0.386
ChaGo-K-1	0.477	0.479	0.435	0.512	0.5	0.351	0.474	0.236	0.178						0.651	0.532	0.574	0.492	0.502
IA-LM										0.682	0.636	0.66	0.633	0.773					
NCI-H522	0.645	0.7	0.707	0.54	0.699	0.639	0.868	0.485	0.532						0.896	0.954	1.11	1.03	0.828
SW 900	0.466	0.649	0.603	0.591	0.499	0.688	0.707	0.509	0.488						0.565	0.679	0.769	0.46	0.423
A549	0.221	0.157	0.172	0.148	0.193					0.911	0.954	0.967	0.946	1.02					
